According to ChEMBL document CHEMBL4507297, “Data for DCP probe PF-04457845” (2021):

Assays:
[1] = Glycine (strychnine-insensitive) CEREP ligand profiling; details: Compound concentration 10.0 uM
[2] = target: Na+ channel (site 2); sodium channel alpha subunit (Homo sapiens, UniProt P35498+P35499+Q01118+Q14524+Q15858+Q99250+Q9NY46+Q9UI33+Q9UQD0+Q9Y5Y9); experiment: Na+ channel (site 2) CEREP ligand profiling; type: protein assay; details: compound concentration 10 uM
[3] = target: Mitogen-activated protein kinase 14 (Homo sapiens) (UniProt Q16539); experiment: p38alpha kinase (h) CEREP ligand profiling; details: Compound concentration 10.0 uM
[4] = test system: Tyrosine-protein kinase ABL1 (Homo sapiens), P00519 [F317I]; details: Compound concentration 1000.0 nM
[5] = test system: Tyrosine-protein kinase ABL1 (Homo sapiens), P00519 [H396P]; details: Compound concentration 1000.0 nM
[6] = target: Activin receptor type-2B (Homo sapiens) (UniProt Q13705); details: Compound concentration 1000.0 nM
[7] = test system: Serine/threonine-protein kinase B-raf (Homo sapiens), P15056 [V600E]; details: Compound concentration 1000.0 nM
[8] = target: Cyclin-dependent kinase 4 (Homo sapiens) (UniProt P11802); details: Compound concentration 1000.0 nM
[9] = target: Megakaryocyte-associated tyrosine-protein kinase (Homo sapiens) (UniProt P42679); details: Compound concentration 1000.0 nM
[10] = target: Death-associated protein kinase 1 (Homo sapiens) (UniProt P53355); details: Compound concentration 1000.0 nM
[11] = target: Discoidin domain-containing receptor 2 (Homo sapiens) (UniProt Q16832); details: Compound concentration 1000.0 nM
[12] = test system: Epidermal growth factor receptor (Homo sapiens), P00533 [T790M]; details: Compound concentration 1000.0 nM
[13] = target: Ephrin type-A receptor 2 (Homo sapiens) (UniProt P29317); details: Compound concentration 1000.0 nM
[14] = target: Mitogen-activated protein kinase 1 (Homo sapiens) (UniProt P28482); details: Compound concentration 1000.0 nM
[15] = target: Mitogen-activated protein kinase 15 (Homo sapiens) (UniProt Q8TD08); details: Compound concentration 1000.0 nM
[16] = target: Tyrosine-protein kinase Fgr (Homo sapiens) (UniProt P09769); details: Compound concentration 1000.0 nM
[17] = test system: Receptor-type tyrosine-protein kinase FLT3 (Homo sapiens), P36888 [UNDEFINED MUTATION]; details: Compound concentration 1000.0 nM
[18] = target: Tyrosine-protein kinase FRK (Homo sapiens) (UniProt P42685); details: Compound concentration 1000.0 nM
[19] = target: Rhodopsin kinase GRK1 (Homo sapiens) (UniProt Q15835); details: Compound concentration 1000.0 nM
[20] = target: Tyrosine-protein kinase HCK (Homo sapiens) (UniProt P08631); details: Compound concentration 1000.0 nM
[21] = target: Tyrosine-protein kinase Lck (Homo sapiens) (UniProt P06239); details: Compound concentration 1000.0 nM
[22] = test system: Leucine-rich repeat serine/threonine-protein kinase 2 (Homo sapiens), Q5S007 [G2019S]; details: Compound concentration 1000.0 nM
[23] = target: Mitogen-activated protein kinase kinase kinase kinase 4 (Homo sapiens) (UniProt O95819); details: Compound concentration 1000.0 nM
[24] = target: MAP kinase-activated protein kinase 5 (Homo sapiens) (UniProt Q8IW41); details: Compound concentration 1000.0 nM
[25] = target: Dual specificity mitogen-activated protein kinase kinase 2 (Homo sapiens) (UniProt P36507); details: Compound concentration 1000.0 nM
[26] = target: Dual specificity mitogen-activated protein kinase kinase 3 (Homo sapiens) (UniProt P46734); details: Compound concentration 1000.0 nM
[27] = test system: Hepatocyte growth factor receptor (Homo sapiens), P08581 [Y1235D]; details: Compound concentration 1000.0 nM
[28] = target: Serine/threonine-protein kinase 4 (Homo sapiens) (UniProt Q13043); details: Compound concentration 1000.0 nM
[29] = target: Myosin light chain kinase 2, skeletal/cardiac muscle (Homo sapiens) (UniProt Q9H1R3); details: Compound concentration 1000.0 nM
[30] = target: Serine/threonine-protein kinase Nek4 (Homo sapiens) (UniProt P51957); details: Compound concentration 1000.0 nM
[31] = target: Mitogen-activated protein kinase 13 (Homo sapiens) (UniProt O15264); details: Compound concentration 1000.0 nM
[32] = target: Phosphatidylinositol 4-phosphate 5-kinase type-1 gamma (Homo sapiens) (UniProt O60331); details: Compound concentration 1000.0 nM
[33] = target: Protein kinase C iota type (Homo sapiens) (UniProt P41743); details: Compound concentration 1000.0 nM
[34] = target: Serine/threonine-protein kinase D1 (Homo sapiens) (UniProt Q15139); details: Compound concentration 1000.0 nM
[35] = target: Proto-oncogene tyrosine-protein kinase receptor Ret (Homo sapiens) (UniProt P07949); details: Compound concentration 1000.0 nM
[36] = target: Serine/threonine-protein kinase Sgk1 (Homo sapiens) (UniProt O00141); details: Compound concentration 1000.0 nM
[37] = target: Testis-specific serine/threonine-protein kinase 1 (Homo sapiens) (UniProt Q9BXA7); details: Compound concentration 1000.0 nM
[38] = target: Mitogen-activated protein kinase kinase kinase 19 (Homo sapiens) (UniProt Q56UN5); details: Compound concentration 1000.0 nM
[39] = target: 5-hydroxytryptamine receptor 2A (Homo sapiens, UniProt P28223); details: Compound concentration 10.0 uM
[40] = target: 5-hydroxytryptamine receptor 5A (Homo sapiens) (UniProt P47898); details: Compound concentration 10.0 uM
[41] = target: Histamine H1 receptor (Homo sapiens) (UniProt P35367); details: Compound concentration 10.0 uM
[42] = target: Beta-1 adrenergic receptor (Homo sapiens) (UniProt P08588); details: Compound concentration 10.0 uM
[43] = target: Muscarinic acetylcholine receptor M5 (Homo sapiens) (UniProt P08912); details: Compound concentration 10.0 uM
[44] = target: Alpha-1D adrenergic receptor (Homo sapiens) (UniProt P25100); details: Compound concentration 10.0 uM

Chain of Myosin light chain kinase 2, skeletal/cardiac muscle (Homo sapiens) (Q9H1R3 whole entry): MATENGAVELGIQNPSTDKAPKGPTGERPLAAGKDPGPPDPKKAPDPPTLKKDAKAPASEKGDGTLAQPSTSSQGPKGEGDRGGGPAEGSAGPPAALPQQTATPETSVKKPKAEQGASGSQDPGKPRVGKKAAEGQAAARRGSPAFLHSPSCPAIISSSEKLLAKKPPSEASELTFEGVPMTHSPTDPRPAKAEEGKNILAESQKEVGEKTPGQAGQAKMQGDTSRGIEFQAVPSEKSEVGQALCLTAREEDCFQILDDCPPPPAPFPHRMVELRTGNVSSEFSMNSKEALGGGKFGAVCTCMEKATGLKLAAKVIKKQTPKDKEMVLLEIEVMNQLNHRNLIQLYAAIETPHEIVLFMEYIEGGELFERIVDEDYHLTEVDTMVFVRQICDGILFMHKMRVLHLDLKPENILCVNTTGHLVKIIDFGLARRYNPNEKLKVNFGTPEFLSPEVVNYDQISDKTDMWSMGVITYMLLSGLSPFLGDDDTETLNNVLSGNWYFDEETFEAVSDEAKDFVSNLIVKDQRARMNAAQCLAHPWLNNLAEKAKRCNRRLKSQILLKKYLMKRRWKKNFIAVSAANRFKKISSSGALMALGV
Chain of Tyrosine-protein kinase FRK (Homo sapiens) (P42685 whole entry): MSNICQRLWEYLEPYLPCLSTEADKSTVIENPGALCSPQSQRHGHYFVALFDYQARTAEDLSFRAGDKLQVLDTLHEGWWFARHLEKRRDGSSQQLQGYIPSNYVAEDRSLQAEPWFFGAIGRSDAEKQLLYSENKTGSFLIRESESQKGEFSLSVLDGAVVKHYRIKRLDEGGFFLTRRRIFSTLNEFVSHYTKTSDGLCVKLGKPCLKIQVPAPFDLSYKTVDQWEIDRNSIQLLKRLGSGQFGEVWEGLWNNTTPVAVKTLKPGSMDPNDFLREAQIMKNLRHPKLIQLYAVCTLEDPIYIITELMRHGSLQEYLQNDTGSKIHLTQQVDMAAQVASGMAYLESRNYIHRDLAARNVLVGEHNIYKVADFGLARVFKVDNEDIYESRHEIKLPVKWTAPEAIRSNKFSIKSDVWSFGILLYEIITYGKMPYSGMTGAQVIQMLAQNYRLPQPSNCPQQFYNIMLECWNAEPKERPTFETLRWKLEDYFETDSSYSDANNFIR
Chain of Activin receptor type-2B (Homo sapiens) (Q13705 whole entry): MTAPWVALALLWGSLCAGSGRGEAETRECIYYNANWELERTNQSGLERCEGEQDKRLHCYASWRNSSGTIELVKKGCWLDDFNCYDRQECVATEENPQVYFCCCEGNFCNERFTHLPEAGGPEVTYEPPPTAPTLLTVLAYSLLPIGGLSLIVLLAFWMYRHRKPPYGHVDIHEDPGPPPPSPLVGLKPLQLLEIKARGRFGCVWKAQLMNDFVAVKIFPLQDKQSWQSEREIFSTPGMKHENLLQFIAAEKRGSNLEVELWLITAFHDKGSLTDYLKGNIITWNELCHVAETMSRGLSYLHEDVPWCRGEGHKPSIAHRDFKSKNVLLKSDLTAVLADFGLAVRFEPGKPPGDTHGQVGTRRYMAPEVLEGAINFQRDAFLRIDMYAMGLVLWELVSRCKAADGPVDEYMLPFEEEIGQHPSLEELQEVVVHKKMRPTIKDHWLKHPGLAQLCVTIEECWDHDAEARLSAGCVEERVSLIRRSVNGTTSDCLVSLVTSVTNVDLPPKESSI
Chain of 5-hydroxytryptamine receptor 2A (P28223 whole entry): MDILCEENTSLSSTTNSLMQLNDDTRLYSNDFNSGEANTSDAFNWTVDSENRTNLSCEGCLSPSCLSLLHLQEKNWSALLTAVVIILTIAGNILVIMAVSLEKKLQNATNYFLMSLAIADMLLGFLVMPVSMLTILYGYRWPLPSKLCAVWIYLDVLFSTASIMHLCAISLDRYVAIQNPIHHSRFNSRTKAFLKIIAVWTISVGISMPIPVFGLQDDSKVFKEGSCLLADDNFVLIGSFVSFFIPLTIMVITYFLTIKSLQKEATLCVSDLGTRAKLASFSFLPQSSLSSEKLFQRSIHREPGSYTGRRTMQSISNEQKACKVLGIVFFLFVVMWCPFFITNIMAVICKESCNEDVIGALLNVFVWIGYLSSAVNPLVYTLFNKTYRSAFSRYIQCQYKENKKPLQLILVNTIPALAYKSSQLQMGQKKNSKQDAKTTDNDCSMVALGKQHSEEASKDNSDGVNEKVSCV
Chain of Histamine H1 receptor (Homo sapiens) (P35367 whole entry): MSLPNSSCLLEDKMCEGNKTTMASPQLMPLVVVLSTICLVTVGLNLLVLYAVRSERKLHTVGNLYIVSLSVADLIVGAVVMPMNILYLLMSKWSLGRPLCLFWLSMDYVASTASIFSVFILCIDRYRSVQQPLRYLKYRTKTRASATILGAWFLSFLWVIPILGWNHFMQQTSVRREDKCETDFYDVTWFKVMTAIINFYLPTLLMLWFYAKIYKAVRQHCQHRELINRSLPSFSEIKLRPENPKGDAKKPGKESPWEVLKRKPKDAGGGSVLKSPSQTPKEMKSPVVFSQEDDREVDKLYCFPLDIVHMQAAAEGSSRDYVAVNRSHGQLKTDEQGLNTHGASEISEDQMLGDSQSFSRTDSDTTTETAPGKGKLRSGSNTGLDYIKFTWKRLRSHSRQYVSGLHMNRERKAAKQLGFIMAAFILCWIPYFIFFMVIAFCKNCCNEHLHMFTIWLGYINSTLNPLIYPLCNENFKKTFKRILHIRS
Chain of Tyrosine-protein kinase HCK (Homo sapiens) (P08631 2-526 limits assumed): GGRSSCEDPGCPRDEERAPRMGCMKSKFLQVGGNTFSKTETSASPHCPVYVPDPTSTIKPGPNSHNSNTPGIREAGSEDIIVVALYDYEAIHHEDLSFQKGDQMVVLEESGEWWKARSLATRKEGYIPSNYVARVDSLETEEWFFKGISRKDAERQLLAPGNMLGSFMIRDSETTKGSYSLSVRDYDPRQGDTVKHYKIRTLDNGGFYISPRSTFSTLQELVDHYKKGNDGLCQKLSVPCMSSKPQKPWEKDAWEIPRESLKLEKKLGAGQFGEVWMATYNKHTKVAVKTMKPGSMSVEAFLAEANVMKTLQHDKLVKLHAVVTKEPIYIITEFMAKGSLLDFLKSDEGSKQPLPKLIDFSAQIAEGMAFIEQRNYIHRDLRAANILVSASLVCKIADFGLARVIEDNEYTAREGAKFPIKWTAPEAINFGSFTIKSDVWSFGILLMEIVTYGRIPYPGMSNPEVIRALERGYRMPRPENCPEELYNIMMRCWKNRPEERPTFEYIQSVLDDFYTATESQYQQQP
Chain of 5-hydroxytryptamine receptor 5A (Homo sapiens) (P47898 whole entry): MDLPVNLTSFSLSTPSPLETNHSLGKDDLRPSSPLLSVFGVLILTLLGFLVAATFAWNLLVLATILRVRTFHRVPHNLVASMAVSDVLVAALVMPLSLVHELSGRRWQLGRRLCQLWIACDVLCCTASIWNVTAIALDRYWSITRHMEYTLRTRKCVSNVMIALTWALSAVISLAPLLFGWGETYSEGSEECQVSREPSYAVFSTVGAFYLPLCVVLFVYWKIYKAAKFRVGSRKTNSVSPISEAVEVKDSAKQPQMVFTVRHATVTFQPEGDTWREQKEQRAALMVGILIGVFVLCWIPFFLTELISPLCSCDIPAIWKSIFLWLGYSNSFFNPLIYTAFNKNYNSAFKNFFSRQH
Chain of Ephrin type-A receptor 2 (Homo sapiens) (P29317 whole entry): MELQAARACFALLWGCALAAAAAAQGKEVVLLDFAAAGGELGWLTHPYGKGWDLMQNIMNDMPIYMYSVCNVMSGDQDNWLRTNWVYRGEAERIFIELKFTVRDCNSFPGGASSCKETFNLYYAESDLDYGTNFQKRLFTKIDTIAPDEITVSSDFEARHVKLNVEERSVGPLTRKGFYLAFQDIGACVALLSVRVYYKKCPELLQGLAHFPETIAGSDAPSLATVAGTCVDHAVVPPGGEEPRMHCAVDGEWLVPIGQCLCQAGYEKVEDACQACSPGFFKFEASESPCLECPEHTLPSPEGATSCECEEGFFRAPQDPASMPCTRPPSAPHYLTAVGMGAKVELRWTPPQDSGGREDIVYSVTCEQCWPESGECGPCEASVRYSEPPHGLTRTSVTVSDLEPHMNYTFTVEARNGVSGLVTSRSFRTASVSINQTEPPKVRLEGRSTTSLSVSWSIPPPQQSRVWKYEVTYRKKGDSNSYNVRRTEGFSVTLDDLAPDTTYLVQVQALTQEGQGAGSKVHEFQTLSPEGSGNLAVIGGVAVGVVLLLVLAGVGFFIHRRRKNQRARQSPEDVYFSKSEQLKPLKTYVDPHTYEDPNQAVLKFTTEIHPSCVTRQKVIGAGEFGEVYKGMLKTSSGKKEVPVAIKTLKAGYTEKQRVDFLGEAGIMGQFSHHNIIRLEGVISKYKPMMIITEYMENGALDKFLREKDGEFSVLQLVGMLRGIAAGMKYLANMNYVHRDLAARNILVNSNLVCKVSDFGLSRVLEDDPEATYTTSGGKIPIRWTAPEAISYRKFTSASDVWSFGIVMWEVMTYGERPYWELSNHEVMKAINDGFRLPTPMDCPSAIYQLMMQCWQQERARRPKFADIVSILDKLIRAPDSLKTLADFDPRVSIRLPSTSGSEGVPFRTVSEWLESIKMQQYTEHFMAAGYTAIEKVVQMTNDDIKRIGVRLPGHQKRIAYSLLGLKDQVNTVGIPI
Chain of Mitogen-activated protein kinase 15 (Homo sapiens) (Q8TD08 whole entry): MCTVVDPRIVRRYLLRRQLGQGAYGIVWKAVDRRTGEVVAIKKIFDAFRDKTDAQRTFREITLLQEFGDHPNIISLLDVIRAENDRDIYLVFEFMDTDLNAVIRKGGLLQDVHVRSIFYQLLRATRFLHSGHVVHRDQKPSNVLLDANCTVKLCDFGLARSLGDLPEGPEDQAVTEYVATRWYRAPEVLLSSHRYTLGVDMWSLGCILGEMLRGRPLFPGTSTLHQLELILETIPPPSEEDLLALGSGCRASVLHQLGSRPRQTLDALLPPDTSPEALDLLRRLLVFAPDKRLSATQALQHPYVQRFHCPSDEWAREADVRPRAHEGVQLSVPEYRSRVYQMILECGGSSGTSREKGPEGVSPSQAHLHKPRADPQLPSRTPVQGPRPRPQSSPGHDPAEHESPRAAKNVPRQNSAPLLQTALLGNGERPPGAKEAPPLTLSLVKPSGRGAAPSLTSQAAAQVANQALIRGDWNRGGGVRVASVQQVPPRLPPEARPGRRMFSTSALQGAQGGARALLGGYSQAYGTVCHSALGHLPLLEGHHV

Compound: O=C(Nc1cccnn1)N1CCC(=Cc2cccc(Oc3ccc(C(F)(F)F)cn3)c2)CC1
- inhibition [1]: -2%
- inhibition at 10 µM [2]: 13% (not active)
- inhibition [3]: 1%
- residual activity [4]: 100%
- residual activity [5]: 100%
- residual activity [6]: 98%
- residual activity [7]: 100%
- residual activity [8]: 100%
- residual activity [9]: 100%
- residual activity [10]: 100%
- residual activity [11]: 100%
- residual activity [12]: 100%
- residual activity [13]: 81%
- residual activity [14]: 92%
- residual activity [15]: 83%
- residual activity [16]: 63%
- residual activity [17]: 94%
- residual activity [18]: 100%
- residual activity [19]: 89%
- residual activity [20]: 98%
- residual activity [21]: 80%
- residual activity [22]: 100%
- residual activity [23]: 100%
- residual activity [24]: 100%
- residual activity [25]: 100%
- residual activity [26]: 100%
- residual activity [27]: 100%
- residual activity [28]: 77%
- residual activity [29]: 88%
- residual activity [30]: 98%
- residual activity [31]: 86%
- residual activity [32]: 66%
- residual activity [33]: 81%
- residual activity [34]: 100%
- residual activity [35]: 100%
- residual activity [36]: 100%
- residual activity [37]: 82%
- residual activity [38]: 85%
- inhibition [39]: 82.9%
- inhibition [40]: 28.4%
- inhibition [41]: 27.2%
- inhibition [42]: 16.5%
- inhibition [43]: 23.5%
- inhibition [44]: 3.84%

Compound: O=C(Nc1cccnn1)N1CC(C/C=C/c2cncc(Oc3ccc(C(F)(F)F)cn3)n2)C1
- residual activity [4]: 53%
- residual activity [5]: 76%
- residual activity [6]: 98%
- residual activity [7]: 85%
- residual activity [8]: 75%
- residual activity [9]: 59%
- residual activity [10]: 98%
- residual activity [11]: 80%
- residual activity [12]: 100%
- residual activity [13]: 100%
- residual activity [14]: 100%
- residual activity [15]: 100%
- residual activity [16]: 100%
- residual activity [17]: 68%
- residual activity [18]: 82%
- residual activity [19]: 82%
- residual activity [20]: 100%
- residual activity [21]: 100%
- residual activity [22]: 100%
- residual activity [23]: 100%
- residual activity [24]: 76%
- residual activity [25]: 95%
- residual activity [26]: 72%
- residual activity [27]: 100%
- residual activity [28]: 100%
- residual activity [29]: 87%
- residual activity [30]: 95%
- residual activity [31]: 100%
- residual activity [32]: 100%
- residual activity [33]: 96%
- residual activity [34]: 100%
- residual activity [35]: 100%
- residual activity [36]: 85%
- residual activity [37]: 100%
- residual activity [38]: 90%
- inhibition [39]: -3.55%
- inhibition [40]: 7.85%
- inhibition [41]: 30.9%
- inhibition [42]: 1.97%
- inhibition [43]: -0.59%
